Values joined by “and” are separate entries in the source; they are usually repeats but may differ in a detail not shown here. Equal entries are not always repeated.
Assays:
[1] = tested on: post-surgical adhesion formation; assay: Post-surgical abdominal adhesion formation after cecum injury in mice (Example 1); format: in vivo, C57Bl mice; details: for adhesion score compared with saline control group or other treatments (Fisher's Least Significant Difference test): post-hoc analysis, Example 1; for adhesion score (mean±standard error of mean): 1 ml wash + 1 ml in peritoneal cavity, scored ten days later; for adhesion scores for all mice (individual animals): one value per mouse
Description: This protocol examined the effects of several treatments on post-surgical adhesion formation. Six-week-old C57Bl mice were fasted overnight and then anesthetized the following day with an intraperitoneal injection of pentobarbital (50 mg/kg). The surgical procedures were conducted under aseptic conditions. The abdomen was shaved to remove hair, and the incision site was cleaned with betadine solution. Surgery was performed under a laminar flow hood using instruments sterilized in a glass bead sterilizer. The abdomen was opened via a midline incision of approximately 10 mm. The cecum was exposed and placed on sterile gauze. […] After 30 seconds, the ethanol was washed from the cecum surface with 1-ml of test solution. Next, the cecum was returned to the peritoneal cavity and placed in its natural position. Then 1-ml of test solution was placed in the peritoneal cavity, and the abdominal incision was repaired by suturing. […] The animals were placed under a warming lamp and observed until they regained consciousness. After regaining consciousness, the mice were placed back in the housing cage. Ten days later, the animals were again anesthetized with pentobarbital, and the abdomen was surgically opened to provide a clear view of the intestines. […] Adhesions were identified visually and by noting the difficulty of separating adjacent surfaces. Adhesion scores were assigned by an individual blinded to (that is unaware of) the test solutions used to treat the animals. The scoring was based on the extent of adhesion of the cecum to itself and to adjacent tissues or organs. […] In this example, there were six groups that were treated with test solutions containing chemical agents of interest. In addition, there was a seventh group (the control group) in which the test solution was only the vehicle in which the chemical agents of interest were dissolved. The vehicle for all six test solutions was 0.9% saline, so the seventh group (control group) received only 0.9% saline as the test solution.

[2] = Excerpt: However, there are serious limitations with regard to using adenosine for this purpose that preclude an optimal anti-adhesive efficacy. […] Dis Colon Rectum. […] Consequently the time-concentration profile of adenosine in the surgical field cannot be optimized.
[3] = tested on: P1 adenosine receptor subtypes (A1, A2A, A2B and A3); details: at 1 mM; cited from earlier work
[4] = tested on: post-surgical adhesion formation; assay: Post-surgical adhesion formation in mice, all groups co-treated with 1,3-dipropyl-8-(p-sulfophenyl)xanthine (Example 2); format: in vivo; details: for adhesion score (mean±standard error of mean): scale 1 to 5; for adhesion scores (individual animals): one value per mouse
Description: This protocol examined the effects of several treatments on post-surgical adhesion formation. Six-week-old C57Bl mice were fasted overnight and then anesthetized the following day with an intraperitoneal injection of pentobarbital (50 mg/kg). The surgical procedures were conducted under aseptic conditions. The abdomen was shaved to remove hair, and the incision site was cleaned with betadine solution. Surgery was performed under a laminar flow hood using instruments sterilized in a glass bead sterilizer. The abdomen was opened via a midline incision of approximately 10 mm. The cecum was exposed and placed on sterile gauze. […] After 30 seconds, the ethanol was washed from the cecum surface with 1-ml of test solution. Next, the cecum was returned to the peritoneal cavity and placed in its natural position. Then 1-ml of test solution was placed in the peritoneal cavity, and the abdominal incision was repaired by suturing. […] The animals were placed under a warming lamp and observed until they regained consciousness. After regaining consciousness, the mice were placed back in the housing cage.
Ten days later, the animals were again anesthetized with pentobarbital, and the abdomen was surgically opened to provide a clear view of the intestines. The severity of adhesion formation was assessed on a semi-quantitative scale from 1 to 5, taking into account the extent of adhesion formation (with 1 being the least amount of adhesion formation and 5 being the most amount of adhesion formation). Adhesions were identified visually and by noting the difficulty of separating adjacent surfaces. Adhesion scores were assigned by an individual blinded to (that is unaware of) the test solutions used to treat the animals. The scoring was based on the extent of adhesion of the cecum to itself and to adjacent tissues or organs. A score of 1 was assigned to animals when there was only minimal (approximately >10 to <20%) adhesion of the cecum to itself (that is within the cecum core) with no adhesion of the cecum to other adjacent structures (abdominal wall, liver or intestines). A score of 2 was assigned when there was mild (approximately >20 to <30%) adhesion of the cecum to itself or when there was minimal (approximately >10 to <20%) adhesion of the cecum to itself but in addition minimal adhesion of the cecum to adjacent structures. A score of 3 was assigned to animals when the adhesion of the cecum to itself was moderate (approximately >30 to <50%), in the absence or presence of minimal adhesion of the cecum to adjacent structures. A score of 4 was assigned to animals when the adhesion of the cecum to itself was severe (approximately >60 to <80%) or when there was moderate adhesion to adjacent structures or both. A score of 5 was assigned to animals when adhesion of the cecum to itself was so extensive that it existed as one entity (complete adhesion within itself) or when there was severe adhesion of the cecum to itself but in addition severe adhesion of the cecum to adjacent structures.

[5] = scale 1 to 5, 75 millimoles/L in 0.9% saline

Which “efficacy in inhibiting formation of post-surgical abdominal adhesions (in words)” value (“efficacy in inhibiting formation” below) ([1]; 75 millimoles/L) does the source give for `Nc1ncnc2c1ncn2[C@@H]1O[C@H](CO)[C@@H](OP(=O)(O)O)[C@H]1O` [3′-adenosine monophosphate] here?
The value was “nearly inactive”.

What about the “adhesion score compared with saline control group or other treatments (Fisher's Least Significant Difference test)” value [1] of the same compound?
Its value is “only slightly less than”.

What about the “adhesion score (mean±standard error of mean)” value [1, 5] of the same compound?
Its value is 4.00±0.17.

And the “adhesion scores for all mice (individual animals)” value (“adhesion scores for all mice” below) ([1]; scale 1 to 5, 75 millimoles/L, listed as 3′-AMP)?
Its value is 4 (8×) and 3 (2×) and 5 (2×).

For `Nc1ncnc2c1ncn2[C@@H]1O[C@H](COP(=O)(O)O)[C@@H](O)[C@H]1O` [5′-adenosine monophosphate], which “efficacy in inhibiting formation” value ([1]; 75 millimoles/L) is on record?
Its value is “nearly inactive”.

And the “adhesion score compared with saline control group or other treatments (Fisher's Least Significant Difference test)” value [1]?
The value was “only slightly less than”.

What about the “adhesion score (mean±standard error of mean)” value [1, 5] of the same compound?
The value was 3.82±0.18.

And the “adhesion scores for all mice” value ([1]; scale 1 to 5, 75 millimoles/L, listed as 5′-AMP)?
The value was 4 (7×) and 3 (3×) and 5.

And the “concentration of stable aqueous solutions (aqueous solubility)” value [2]?
Its value is over 75 millimoles/L.

Which results are given for `CCCn1c(=O)c2[nH]c(-c3ccc(S(=O)(=O)O)cc3)nc2n(CCC)c1=O` [1,3-dipropyl-8-(p-sulfophenyl)xanthine]?
blockade of adenosine receptor subtypes [3]: blocks all four P1 adenosine receptor subtypes; adhesion score (mean±standard error of mean) ([4]; 1,3-dipropyl-8-(p-sulfophenyl)xanthine 1 mM + saline only (group headed Saline)): 4.75±0.22; adhesion scores (individual animals) ([4]; 1,3-dipropyl-8-(p-sulfophenyl)xanthine 1 mM + saline only): 5 (3×) and 4

For `Nc1ncnc2c1ncn2[C@@H]1O[C@H](CO)[C@@H](O)[C@H]1O` [Adenosine], which “adhesion score (mean±standard error of mean)” value ([1]; scale 1 (least) to 5 (most), 23 millimoles/L in 0.9% saline) is on record?
The value was 3.08±0.15.

What about the “adhesion scores for all mice” value ([1]; scale 1 to 5, 23 millimoles/L) of the same compound?
The value was 3 (9×) and 4 (2×) and 2.

What about the “adhesion scores (individual animals)” value ([4]; 23 mM + 1,3-dipropyl-8-(p-sulfophenyl)xanthine 1 mM) of the same compound?
The value was 4 (3×) and 5.

What about the “adhesion score (mean±standard error of mean)” value ([4]; 23 millimoles/L + 1,3-dipropyl-8-(p-sulfophenyl)xanthine 1 mM) of the same compound?
Its value is 4.25±0.22.

And the “adhesion score compared with the saline group (Fisher's Least Significant Difference test)” value ([4]; in presence of 1,3-dipropyl-8-(p-sulfophenyl)xanthine 1 mM)?
The value was “did not significantly reduce”.

And the “concentration of stable aqueous solutions (aqueous solubility)” value [2]?
Its value is at most 23 millimoles/L.

For `Nc1ncnc2c1ncn2[C@@H]1O[C@H](CO)[C@@H](O)[C@H]1OP(=O)(O)O` [2′-adenosine monophosphate], which “efficacy in inhibiting formation” value ([1]; 75 millimoles/L) is on record?
Its value is “nearly inactive”.

And the “adhesion score compared with saline control group or other treatments (Fisher's Least Significant Difference test)” value [1]?
The value was “only slightly less than”.

What about the “adhesion score (mean±standard error of mean)” value [1, 5] of the same compound?
The value was 4.08±0.15.

And the “adhesion scores for all mice” value ([1]; scale 1 to 5, 75 millimoles/L, listed as 2′-AMP)?
Its value is 4 (9×) and 3 and 5 (2×).

— patent US8927521B2, “Cyclic adenosine monophosphates for reducing the formation of adhesions” (University of Pittsburgh—of the Commonwealth System of …, priority 2008, dated 2015)
